Assay results taken from paper PMC5378303 (Nature, 2017).

Molecular target: T1, phi3T AimR receptor (Bacillus phage phi3T, UniProt P0DOE3)
T1 sequence (P0DOE3 1-378): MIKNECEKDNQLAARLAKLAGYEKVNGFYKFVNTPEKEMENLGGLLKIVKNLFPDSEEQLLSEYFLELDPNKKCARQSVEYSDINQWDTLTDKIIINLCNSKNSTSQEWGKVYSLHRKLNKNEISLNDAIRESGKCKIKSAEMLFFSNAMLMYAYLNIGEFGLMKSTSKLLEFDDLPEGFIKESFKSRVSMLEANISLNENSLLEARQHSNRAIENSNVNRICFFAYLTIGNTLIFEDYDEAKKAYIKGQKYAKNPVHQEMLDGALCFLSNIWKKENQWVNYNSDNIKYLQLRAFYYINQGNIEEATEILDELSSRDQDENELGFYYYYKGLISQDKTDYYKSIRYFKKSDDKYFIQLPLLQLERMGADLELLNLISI
Assay: Microscale thermophoresis
Type: binding
Conditions: label-free MST, 200 nM AimR, peptide 9-4000 nM, pH 8.0, 23 °C, 3 runs

Substance: GMPRGA
- binding to phi3T AimR (in words): did not show specific binding to the phi3T AimR receptor
